“And” between values parts separate entries of the source, which are not always exact repeats. Equal entries are not always repeated.
Assays:
Type in all cases: cell-based, human
HaCaT cells = experiment: Overall anti-inflammatory effect in UVB-irradiated skin cell cultures (HaCaT); settings: addition of azelaic acid
Method: HaCaT cells originate from a spontaneously immortalized permanent human keratinocyte cell line established by long-term cultivation of adult human keratinocytes under reduced calcium concentration and elevated temperature (Boukamp et al. J Cell Biol 106:761-771, 1988). HaCaT cells were propagated in culture medium. This consists of 88 ml DMEM/Ham's F12 w/o glutamine, 10 ml foetal calf serum, 1 ml penicillin/streptomycin solution with 10,000 units/ml and 1 ml of glutamine. […] HaCaT cells were sown in 6-well or 12-well plates at a cell number of 3×10^5 and 1.5×10^5 cells/well, respectively. The cells were cultivated to about 80% confluence in culture medium. 2 h prior to the intended UV irradiation, the cells were incubated with the above-mentioned substances. Immediately before the irradiation, the cells were washed 2× with PBS and irradiated therein. […] The protein concentration was determined using a commercial kit from Meso Scale Discovery, Gaithersburg, Md., USA. […] The samples were then washed once more, 150 μl of read buffer were pipetted into the mixture and the electrochemiluminescence was measured in an MSD Sector plate reader. […] The cytokines IL-1β (A), IL-6 (B), TNFα (C), VEGF (D) and MCP-1/CCL2 (E) were measured in the supernatant in triplicate after 24 (series I) and 48 h (series II) using Mesoscale. […]

MCP-1 = experiment: MCP-1/CCL2 in supernatants of UVB-irradiated HaCaT cells; settings: UVB 100 mJ irradiated, azelaic acid 20 mM, pigment 3%
Method: (§1) HaCaT cells originate from a spontaneously immortalized permanent human keratinocyte cell line established by long-term cultivation of adult human keratinocytes under reduced calcium concentration and elevated temperature (Boukamp et al. J Cell Biol 106:761-771, 1988). HaCaT cells were propagated in culture medium. This consists of 88 ml DMEM/Ham's F12 w/o glutamine, 10 ml foetal calf serum, 1 ml penicillin/streptomycin solution with 10,000 units/ml and 1 ml of glutamine. […] HaCaT cells were sown in 6-well or 12-well plates at a cell number of 3×10^5 and 1.5×10^5 cells/well, respectively. The cells were cultivated to about 80% confluence in culture medium. 2 h prior to the intended UV irradiation, the cells were incubated with the above-mentioned substances. Immediately before the irradiation, the cells were washed 2× with PBS and irradiated therein. Irradiation was with UVB (spectrum: 280-360 nM, max. 320 nM) in a Waldmann-UVB source UV7002 at 100 mJ. After the UV irradiation, the cells were irradiated in culture medium in the presence and absence of the abovementioned substances. The cultures were stopped 24 h or 48 h after the UVB irradiation, and the supernatant was removed and centrifuged to remove debris and titanium dioxide-coated potassium aluminium silicate. All cultures were set up in triplicate. The supernatants were frozen at -80° C. until further use. The protein concentration was determined using a commercial kit from Meso Scale Discovery, Gaithersburg, Md., USA. The test was carried out in accordance with the instructions of the manufacturer (www.mesoscale.com). […] The samples were then washed once more, 150 μl of read buffer were pipetted into the mixture and the electrochemiluminescence was measured in an MSD Sector plate reader. […] The following cell cultures were prepared: • unirradiated HaCaTs • irradiated HaCaTs (100 mJ) • irradiated HaCaTs (100 mJ) in the presence of azelaic acid, • irradiated HaCaTs (100 mJ) in the presence of azelaic acid and titanium dioxide-coated potassium aluminium silicate The following reagents were used to treat the cells: • azelaic acid, Fluka, batch S3317131508B29, 20 mM • titanium dioxide-coated potassium aluminium silicate, Merck Darmstadt, batch W08012807X, 3% The following cytokines/chemokines were analyzed: • IL-1β • IL-6 • TNF-α • VEGF • MCP-1=CCL2 HaCaT cells were cultivated in triplicates, irradiated with 100 mJ UVB and then cultivated in the presence or absence of azelaic acid and, if appropriate, titanium dioxide-coated potassium aluminium silicate or the combination thereof for 24 or 48 h. […] The cytokines IL-1β (A), IL-6 (B), TNFα (C), VEGF (D) and MCP-1/CCL2 (E) were measured in the supernatant in triplicate after 24 (series I) and 48 h (series II) using Mesoscale. […]

IL-6 = IL-6 in supernatants of UVB-irradiated HaCaT cells; settings: UVB 100 mJ irradiated, azelaic acid 20 mM, pigment 3%
Method: (§2) HaCaT cells originate from a spontaneously immortalized permanent human keratinocyte cell line established by long-term cultivation of adult human keratinocytes under reduced calcium concentration and elevated temperature (Boukamp et al. J Cell Biol 106:761-771, 1988). HaCaT cells were propagated in culture medium. This consists of 88 ml DMEM/Ham's F12 w/o glutamine, 10 ml foetal calf serum, 1 ml penicillin/streptomycin solution with 10,000 units/ml and 1 ml of glutamine. […] HaCaT cells were sown in 6-well or 12-well plates at a cell number of 3×10^5 and 1.5×10^5 cells/well, respectively. The cells were cultivated to about 80% confluence in culture medium. 2 h prior to the intended UV irradiation, the cells were incubated with the above-mentioned substances. Immediately before the irradiation, the cells were washed 2× with PBS and irradiated therein. Irradiation was with UVB (spectrum: 280-360 nM, max. 320 nM) in a Waldmann-UVB source UV7002 at 100 mJ. […] The protein concentration was determined using a commercial kit from Meso Scale Discovery, Gaithersburg, Md., USA. […] The samples were then washed once more, 150 μl of read buffer were pipetted into the mixture and the electrochemiluminescence was measured in an MSD Sector plate reader. […] The following cell cultures were prepared: • unirradiated HaCaTs • irradiated HaCaTs (100 mJ) • irradiated HaCaTs (100 mJ) in the presence of azelaic acid, • irradiated HaCaTs (100 mJ) in the presence of azelaic acid and titanium dioxide-coated potassium aluminium silicate The following reagents were used to treat the cells: • azelaic acid, Fluka, batch S3317131508B29, 20 mM • titanium dioxide-coated potassium aluminium silicate, Merck Darmstadt, batch W08012807X, 3% The following cytokines/chemokines were analyzed: • IL-1β • IL-6 • TNF-α • VEGF • MCP-1=CCL2 HaCaT cells were cultivated in triplicates, irradiated with 100 mJ UVB and then cultivated in the presence or absence of azelaic acid and, if appropriate, titanium dioxide-coated potassium aluminium silicate or the combination thereof for 24 or 48 h. […]

TNF-α = TNF-α in supernatants of UVB-irradiated HaCaT cells; settings: UVB 100 mJ irradiated, azelaic acid 20 mM, pigment 3%
Method: as §2

VEGF = VEGF in supernatants of UVB-irradiated HaCaT cells
Method: HaCaT cells originate from a spontaneously immortalized permanent human keratinocyte cell line established by long-term cultivation of adult human keratinocytes under reduced calcium concentration and elevated temperature (Boukamp et al. J Cell Biol 106:761-771, 1988). HaCaT cells were propagated in culture medium. This consists of 88 ml DMEM/Ham's F12 w/o glutamine, 10 ml foetal calf serum, 1 ml penicillin/streptomycin solution with 10,000 units/ml and 1 ml of glutamine. […] HaCaT cells were sown in 6-well or 12-well plates at a cell number of 3×10^5 and 1.5×10^5 cells/well, respectively. The cells were cultivated to about 80% confluence in culture medium. 2 h prior to the intended UV irradiation, the cells were incubated with the above-mentioned substances. Immediately before the irradiation, the cells were washed 2× with PBS and irradiated therein. Irradiation was with UVB (spectrum: 280-360 nM, max. 320 nM) in a Waldmann-UVB source UV7002 at 100 mJ. After the UV irradiation, the cells were irradiated in culture medium in the presence and absence of the abovementioned substances. The cultures were stopped 24 h or 48 h after the UVB irradiation, and the supernatant was removed and centrifuged to remove debris and titanium dioxide-coated potassium aluminium silicate. All cultures were set up in triplicate. The supernatants were frozen at -80° C. until further use. The protein concentration was determined using a commercial kit from Meso Scale Discovery, Gaithersburg, Md., USA. The test was carried out in accordance with the instructions of the manufacturer (www.mesoscale.com). After addition of the blocking solution to the plates precoated with scavenger antibodies, the samples were incubated for 1 h and then washed. […] After this time, the detection antibody was added for 1 h. The samples were then washed once more, 150 μl of read buffer were pipetted into the mixture and the electrochemiluminescence was measured in an MSD Sector plate reader. […] The following cell cultures were prepared: • unirradiated HaCaTs • irradiated HaCaTs (100 mJ) • irradiated HaCaTs (100 mJ) in the presence of azelaic acid, • irradiated HaCaTs (100 mJ) in the presence of azelaic acid and titanium dioxide-coated potassium aluminium silicate The following reagents were used to treat the cells: • azelaic acid, Fluka, batch S3317131508B29, 20 mM • titanium dioxide-coated potassium aluminium silicate, Merck Darmstadt, batch W08012807X, 3% The following cytokines/chemokines were analyzed: • IL-1β • IL-6 • TNF-α • VEGF • MCP-1=CCL2 HaCaT cells were cultivated in triplicates, irradiated with 100 mJ UVB and then cultivated in the presence or absence of azelaic acid and, if appropriate, titanium dioxide-coated potassium aluminium silicate or the combination thereof for 24 or 48 h. The supernatants were then used to measure proinflammatory cytokines. The cytokines IL-1β (A), IL-6 (B), TNFα (C), VEGF (D) and MCP-1/CCL2 (E) were measured in the supernatant in triplicate after 24 (series I) and 48 h (series II) using Mesoscale. What is shown are the mean values and also the respective individual values of the protein determinations.

IL-1β = IL-1β in supernatants of UVB-irradiated HaCaT cells; settings: UVB 100 mJ irradiated, azelaic acid 20 mM, pigment 3%
Method: as §1

O=C(O)CCCCCCCC(=O)O [Azelaic acid, azelaic acid]
induction of the inflammatory cytokines (IL-1β, IL-6, TNF-α) after irradiation of keratinocytes (HaCaT cells): can be reduced | MCP-1 in HACaT cell supernatants after 24 h, mean (MCP-1; 24 h, mean n = 3): 683.2 pg/L | MCP-1 in HACaT cell supernatants after 24 h, individual values #1-#3 (MCP-1; 24 h, single cultures): 520.8 pg/L and 908.9 pg/L and 619.9 pg/L | MCP-1 in HACaT cell supernatants after 48 h, mean (MCP-1; 48 h, mean n = 3): 1190.1 pg/L | MCP-1 in HACaT cell supernatants after 48 h, individual values #1-#3 (MCP-1; 48 h, single cultures): 1116.1 pg/L and 1279.9 pg/L and 1174.3 pg/L | IL-6 in HACaT cell supernatants after 24 h, mean (IL-6; 24 h, mean n = 3): 44.3 pg/L | IL-6 in HACaT cell supernatants after 24 h, individual values #1-#3 (IL-6; 24 h, single cultures): 24.7 pg/L and 70.9 pg/L and 37.4 pg/L | IL-6 in HACaT cell supernatants after 48 h, mean (IL-6; 48 h, mean n = 3): 120.7 pg/L | TNF-α in HACaT cell supernatants after 24 h, mean (TNF-α; 24 h, mean n = 3): 7.2 pg/L | TNF-α in HACaT cell supernatants after 24 h, individual values #1-#3 (TNF-α; 24 h, single cultures): 7.6 pg/L and 21.63 pg/L and 6.7 pg/L | TNF-α in HACaT cell supernatants after 48 h, mean (TNF-α; 48 h, mean n = 3): 30.0 pg/L | VGEF in HACaT cell supernatants after 24 h, mean (VEGF; UVB 100 mJ irradiated, 24 h, azelaic acid 20 mM, pigment 3%, mean n = 3): 692.4 pg/L | VGEF in HACaT cell supernatants after 24 h, individual values #1-#3 (VEGF; UVB 100 mJ irradiated, 24 h, azelaic acid 20 mM, pigment 3%, single cultures): 633.4 pg/L and 1694.59 pg/L and 751.4 pg/L | VGEF in HACaT cell supernatants after 48 h, mean (VEGF; UVB 100 mJ irradiated, 48 h, azelaic acid 20 mM, pigment 3%, mean n = 3): 3999.0 pg/L | VGEF in HACaT cell supernatants after 48 h, individual values #1-#3 (VEGF; UVB 100 mJ irradiated, 48 h, azelaic acid 20 mM, pigment 3%, single cultures): 2950 pg/mL and 5810 pg/mL and 3240 pg/mL | effect on the endothelial growth factor VEGF (VEGF; keratinocytes, azelaic acid alone): leads to a reduction | IL-1β in HACaT cell supernatants after 24 h, mean (IL-1β; 24 h, mean n = 3): 5.8 pg/L | IL-1β in HACaT cell supernatants after 24 h, individual values #1-#3 (IL-1β; 24 h, single cultures): 3.1 pg/l (2×) and 11.3 pg/l | IL-1β in HACaT cell supernatants after 48 h, mean (IL-1β; 48 h, mean n = 3): 10.4 pg/L | IL-1β in HACaT cell supernatants after 48 h, individual values #1-#3 (IL-1β; 48 h, single cultures): 7.2 pg/mL and 14.3 pg/mL and 9.7 pg/mL

From US20120027862A1, “Azelaic acid-comprising formulation with added pigment” (INTENDIS GMBH, priority 2010, published 2012)
